As a reminder, the IC50 is the concentration that inhibits the measured activity by half. A lower IC50 goes with higher potency. For orientation: GI50 means the concentration at which growth is held to half of that of the control.

These results are taken from ChEMBL document CHEMBL2406977, “The discovery of PLK4 inhibitors: (E)-3-((1H-Indazol-6-yl)methylene)indolin-2-ones as novel antiproliferative agents” (J Med Chem, 2013).

Molecules are shown by their SMILES.

In one data set the test system is Mus musculus. Kind of data set: Toxicity in human MDA-MB-468 cells xenografted CB-17 SCID mouse assessed as reduction in body weight at 25 mg/kg, ip qd for 21 days. In kind it is organism-based. Further details: dose 25 mg/kg, route intraperitoneal. The settings on record: in vivo, 504 h. (In general: A xenograft is tissue or cells of one species grown in another, often human tumour cells in immunodeficient mice.)

The target of another data set is Aurora kinase B (Homo sapiens, UniProt Q96GD4). Kind of data set: Inhibition of aurora B (unknown origin) by FRET-based homogeneous assay.
Aurora kinase B, sequence (Q96GD4 whole entry): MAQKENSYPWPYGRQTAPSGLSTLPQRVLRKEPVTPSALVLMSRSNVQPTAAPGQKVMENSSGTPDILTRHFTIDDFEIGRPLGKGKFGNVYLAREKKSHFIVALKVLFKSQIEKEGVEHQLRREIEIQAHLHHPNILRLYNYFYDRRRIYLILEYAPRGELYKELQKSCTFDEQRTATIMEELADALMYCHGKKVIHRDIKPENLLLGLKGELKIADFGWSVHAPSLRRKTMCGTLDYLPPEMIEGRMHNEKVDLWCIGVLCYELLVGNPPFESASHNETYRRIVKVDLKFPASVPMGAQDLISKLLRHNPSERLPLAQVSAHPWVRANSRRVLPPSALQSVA
A further data set has as its target T1, Aurora kinase A (Homo sapiens, UniProt O14965).
T1 sequence (O14965 whole entry): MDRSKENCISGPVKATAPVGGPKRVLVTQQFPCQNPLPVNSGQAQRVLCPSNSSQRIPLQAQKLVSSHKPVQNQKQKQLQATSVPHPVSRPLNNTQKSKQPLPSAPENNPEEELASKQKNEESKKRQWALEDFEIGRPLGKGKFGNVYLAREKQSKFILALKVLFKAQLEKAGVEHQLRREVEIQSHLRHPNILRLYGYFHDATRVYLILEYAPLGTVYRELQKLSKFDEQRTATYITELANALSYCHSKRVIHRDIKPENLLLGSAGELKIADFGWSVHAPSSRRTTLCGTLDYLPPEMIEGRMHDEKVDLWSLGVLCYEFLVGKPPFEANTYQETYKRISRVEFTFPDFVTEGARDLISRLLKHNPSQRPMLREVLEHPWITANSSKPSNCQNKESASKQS
Kind of data set: Inhibition of aurora A (unknown origin) by FRET-based homogeneous assay.

In a further data set the target is Cytochrome P450 2C9 (Homo sapiens, UniProt P11712). Kind of data set: Inhibition of CYP2C9 (unknown origin) using MFC as substrate after 45 mins by fluorescence assay. The format is ADME.
Cytochrome P450 2C9, sequence (P11712 whole entry): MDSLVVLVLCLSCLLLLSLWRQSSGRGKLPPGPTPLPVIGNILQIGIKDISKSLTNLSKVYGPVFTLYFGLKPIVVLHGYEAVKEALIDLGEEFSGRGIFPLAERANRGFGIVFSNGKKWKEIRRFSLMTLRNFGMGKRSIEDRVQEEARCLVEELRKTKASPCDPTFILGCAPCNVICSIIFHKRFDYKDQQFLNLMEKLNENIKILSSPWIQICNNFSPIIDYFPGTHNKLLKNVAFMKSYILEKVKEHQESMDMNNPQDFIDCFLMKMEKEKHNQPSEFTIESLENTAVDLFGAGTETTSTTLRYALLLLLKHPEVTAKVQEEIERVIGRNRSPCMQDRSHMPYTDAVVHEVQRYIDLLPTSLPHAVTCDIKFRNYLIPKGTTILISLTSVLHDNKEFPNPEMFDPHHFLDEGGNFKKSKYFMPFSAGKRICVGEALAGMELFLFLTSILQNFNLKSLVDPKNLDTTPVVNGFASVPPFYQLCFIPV
The next data set deals with T2, Cytochrome P450 1A2 (Homo sapiens, UniProt P05177).
T2 sequence (P05177 whole entry): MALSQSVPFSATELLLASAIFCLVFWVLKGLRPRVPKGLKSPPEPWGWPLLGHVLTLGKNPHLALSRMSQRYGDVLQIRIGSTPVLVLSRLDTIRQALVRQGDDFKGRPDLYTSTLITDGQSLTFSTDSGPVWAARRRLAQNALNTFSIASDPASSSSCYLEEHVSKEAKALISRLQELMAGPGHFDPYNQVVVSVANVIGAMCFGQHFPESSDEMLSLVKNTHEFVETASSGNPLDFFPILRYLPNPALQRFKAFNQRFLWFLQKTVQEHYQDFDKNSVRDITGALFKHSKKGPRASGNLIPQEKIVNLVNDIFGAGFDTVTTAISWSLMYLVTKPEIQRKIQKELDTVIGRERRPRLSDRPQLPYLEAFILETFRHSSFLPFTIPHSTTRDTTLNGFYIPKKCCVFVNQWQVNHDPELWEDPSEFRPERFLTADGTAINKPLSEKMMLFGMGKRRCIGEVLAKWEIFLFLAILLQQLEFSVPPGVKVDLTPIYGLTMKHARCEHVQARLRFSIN
Kind of data set: Inhibition of CYP1A2 (unknown origin) using CEC as substrate after 15 mins by fluorescence assay. The format is ADME.

In a further data set the test system is HCC1954. Kind of data set: Antiproliferative activity against human HCC1954 cells assessed as growth inhibition after 5 days by SRB assay. In kind it is functional. The following applies: HCC1954, 120 h. For orientation: The SRB assay estimates cell density from bound dye.
Another data set concerns MDA-MB-231. Kind of data set: Antiproliferative activity against human MDA-MB-231 cells assessed as growth inhibition after 5 days by SRB assay. The format is functional. The settings on record: MDA-MB-231, 120 h.
Data set [1] deals with Serine/threonine-protein kinase PLK2 (Homo sapiens, UniProt Q9NYY3). Kind of data set: Inhibition of PLK2 (unknown origin) by FRET-based homogeneous assay.
Serine/threonine-protein kinase PLK2, sequence (Q9NYY3 whole entry): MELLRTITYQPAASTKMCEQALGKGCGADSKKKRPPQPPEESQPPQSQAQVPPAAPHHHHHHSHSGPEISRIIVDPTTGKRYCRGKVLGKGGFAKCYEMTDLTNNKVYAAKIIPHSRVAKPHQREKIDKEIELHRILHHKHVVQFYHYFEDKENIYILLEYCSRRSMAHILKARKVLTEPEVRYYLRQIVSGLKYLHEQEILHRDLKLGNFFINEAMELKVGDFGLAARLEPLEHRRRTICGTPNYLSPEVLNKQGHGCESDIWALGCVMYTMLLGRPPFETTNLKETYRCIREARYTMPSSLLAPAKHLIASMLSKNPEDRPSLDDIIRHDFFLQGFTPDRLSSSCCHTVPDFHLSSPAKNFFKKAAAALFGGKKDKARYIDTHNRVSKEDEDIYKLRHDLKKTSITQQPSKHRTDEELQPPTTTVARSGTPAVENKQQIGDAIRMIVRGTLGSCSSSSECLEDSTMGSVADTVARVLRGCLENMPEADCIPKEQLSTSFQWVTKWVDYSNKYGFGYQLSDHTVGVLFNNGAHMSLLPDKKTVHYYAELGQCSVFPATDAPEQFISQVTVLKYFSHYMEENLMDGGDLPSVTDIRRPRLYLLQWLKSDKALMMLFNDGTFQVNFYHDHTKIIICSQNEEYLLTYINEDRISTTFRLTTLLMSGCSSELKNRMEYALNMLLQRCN

Turning to `COc1ccc2c(c1)/C(=C\c1ccc3c(/C=C/c4ccc(N5CCN(C)CC5)nc4)n[nH]c3c1)C(=O)N2`, in the data set on Mus musculus, the Activity entry is “Non-toxic”. Moreover, the IC50 against Aurora kinase B was 210 nM; at Aurora kinase A, 370 nM; against Cytochrome P450 2C9 it was 800 nM; against Cytochrome P450 1A2, above 10000 nM; in data set [1] it was above 10000 nM. Further, the 50% growth inhibitory concentration (GI50) in the data set with HCC1954 is 2300 nM; in the data set with MDA-MB-231, below 10 nM.
